Assay results from ChEMBL document CHEMBL5291721, “A preclinical secondary pharmacology resource illuminates target-adverse drug reaction associations of marketed drugs” (Nat Commun, 2023).

Key:
[1] = biological target: T1, Alpha-2A adrenergic receptor (Homo sapiens, UniProt P08913); assay type: functional, cell-based
T1 sequence (P08913 whole entry): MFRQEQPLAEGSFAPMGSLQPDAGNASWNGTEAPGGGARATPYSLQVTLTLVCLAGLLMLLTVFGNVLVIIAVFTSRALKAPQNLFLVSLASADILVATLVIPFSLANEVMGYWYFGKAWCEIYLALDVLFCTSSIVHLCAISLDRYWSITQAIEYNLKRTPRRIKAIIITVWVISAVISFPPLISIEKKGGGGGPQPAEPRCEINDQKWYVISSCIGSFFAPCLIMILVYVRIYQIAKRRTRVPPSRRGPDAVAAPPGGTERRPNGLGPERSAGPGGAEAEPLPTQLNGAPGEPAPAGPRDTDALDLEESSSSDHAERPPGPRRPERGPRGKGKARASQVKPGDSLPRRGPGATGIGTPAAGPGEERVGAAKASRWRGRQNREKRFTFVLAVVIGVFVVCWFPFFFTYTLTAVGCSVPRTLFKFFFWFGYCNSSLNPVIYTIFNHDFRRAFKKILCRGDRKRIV

Vasopressin V1a receptor = Vasopressin V1a receptor (Homo sapiens, UniProt P37288)
Endothelin-1 receptor = biological target: T2, Endothelin-1 receptor (Homo sapiens, UniProt P25101)
T2 sequence (P25101 whole entry): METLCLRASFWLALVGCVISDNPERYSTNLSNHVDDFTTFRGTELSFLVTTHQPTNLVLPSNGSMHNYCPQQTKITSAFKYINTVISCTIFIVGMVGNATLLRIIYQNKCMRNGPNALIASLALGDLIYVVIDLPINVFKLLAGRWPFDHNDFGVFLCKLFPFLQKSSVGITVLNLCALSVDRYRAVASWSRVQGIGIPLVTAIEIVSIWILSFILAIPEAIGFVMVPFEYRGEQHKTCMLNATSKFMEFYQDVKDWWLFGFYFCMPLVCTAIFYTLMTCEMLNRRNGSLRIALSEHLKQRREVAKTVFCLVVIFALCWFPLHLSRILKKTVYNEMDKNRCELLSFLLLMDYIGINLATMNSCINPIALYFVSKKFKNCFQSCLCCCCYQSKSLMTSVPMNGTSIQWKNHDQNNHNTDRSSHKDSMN

[2] = biological target: Gamma-aminobutyric acid receptor subunit alpha-1 (Rattus norvegicus, UniProt P62813); assay type: functional
[3] = biological target: T3, 5-hydroxytryptamine receptor 1A (Homo sapiens, UniProt P08908); assay type: functional, cell-based
T3 sequence (P08908 whole entry): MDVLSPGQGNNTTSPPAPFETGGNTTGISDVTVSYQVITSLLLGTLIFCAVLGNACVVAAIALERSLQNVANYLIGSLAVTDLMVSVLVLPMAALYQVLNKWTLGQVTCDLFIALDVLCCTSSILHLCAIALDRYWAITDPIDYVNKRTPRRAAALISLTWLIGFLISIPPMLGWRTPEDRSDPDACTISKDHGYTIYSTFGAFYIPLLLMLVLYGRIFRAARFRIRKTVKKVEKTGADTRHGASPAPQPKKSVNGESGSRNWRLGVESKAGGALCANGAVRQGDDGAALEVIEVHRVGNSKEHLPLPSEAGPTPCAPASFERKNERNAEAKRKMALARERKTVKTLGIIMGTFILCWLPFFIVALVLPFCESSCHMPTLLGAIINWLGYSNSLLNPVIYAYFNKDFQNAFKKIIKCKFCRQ

[4] = biological target: T4, 5-hydroxytryptamine receptor 3A (Homo sapiens, UniProt P46098); assay type: functional
T4 sequence (P46098 whole entry): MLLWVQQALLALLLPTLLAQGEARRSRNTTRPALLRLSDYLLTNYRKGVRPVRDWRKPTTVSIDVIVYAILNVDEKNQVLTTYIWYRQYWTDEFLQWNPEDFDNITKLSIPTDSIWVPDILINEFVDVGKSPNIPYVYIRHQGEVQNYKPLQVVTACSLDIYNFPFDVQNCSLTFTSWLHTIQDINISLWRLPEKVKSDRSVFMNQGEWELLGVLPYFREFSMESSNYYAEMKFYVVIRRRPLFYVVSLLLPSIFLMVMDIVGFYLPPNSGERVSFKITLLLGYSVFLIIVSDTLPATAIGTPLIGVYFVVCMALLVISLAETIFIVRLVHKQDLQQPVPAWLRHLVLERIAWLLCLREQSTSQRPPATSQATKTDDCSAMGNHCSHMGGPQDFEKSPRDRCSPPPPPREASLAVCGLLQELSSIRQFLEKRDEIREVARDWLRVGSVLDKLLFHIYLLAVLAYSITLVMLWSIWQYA

[5] = biological target: T5, Equilibrative nucleoside transporter 1 (Homo sapiens, UniProt Q99808)
T5 sequence (Q99808 whole entry): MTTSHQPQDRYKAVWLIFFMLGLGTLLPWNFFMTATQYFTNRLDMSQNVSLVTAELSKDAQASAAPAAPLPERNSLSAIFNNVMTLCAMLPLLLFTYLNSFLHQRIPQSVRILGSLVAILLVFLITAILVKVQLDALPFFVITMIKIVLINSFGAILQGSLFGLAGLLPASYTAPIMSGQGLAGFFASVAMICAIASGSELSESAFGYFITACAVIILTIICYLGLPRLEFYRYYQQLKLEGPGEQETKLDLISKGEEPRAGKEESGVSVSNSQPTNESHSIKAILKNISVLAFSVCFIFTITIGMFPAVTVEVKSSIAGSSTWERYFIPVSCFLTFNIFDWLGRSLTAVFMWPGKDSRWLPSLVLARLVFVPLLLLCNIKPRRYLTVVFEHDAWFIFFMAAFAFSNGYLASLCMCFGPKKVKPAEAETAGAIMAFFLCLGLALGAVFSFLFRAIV

Histamine H3 receptor = Histamine H3 receptor (Homo sapiens, UniProt Q9Y5N1)
D(1A) dopamine receptor = D(1A) dopamine receptor (Homo sapiens, UniProt P21728); assay type: functional, cell-based
[6] = biological target: Voltage-gated inwardly rectifying potassium channel KCNH2 (Homo sapiens, UniProt Q12809); assay type: functional; conditions: read-out: AC50
D(3) dopamine receptor = D(3) dopamine receptor (Homo sapiens, UniProt P35462)
Also: assay procedure not described here.

Histamine H3 receptor, sequence (Q9Y5N1 whole entry): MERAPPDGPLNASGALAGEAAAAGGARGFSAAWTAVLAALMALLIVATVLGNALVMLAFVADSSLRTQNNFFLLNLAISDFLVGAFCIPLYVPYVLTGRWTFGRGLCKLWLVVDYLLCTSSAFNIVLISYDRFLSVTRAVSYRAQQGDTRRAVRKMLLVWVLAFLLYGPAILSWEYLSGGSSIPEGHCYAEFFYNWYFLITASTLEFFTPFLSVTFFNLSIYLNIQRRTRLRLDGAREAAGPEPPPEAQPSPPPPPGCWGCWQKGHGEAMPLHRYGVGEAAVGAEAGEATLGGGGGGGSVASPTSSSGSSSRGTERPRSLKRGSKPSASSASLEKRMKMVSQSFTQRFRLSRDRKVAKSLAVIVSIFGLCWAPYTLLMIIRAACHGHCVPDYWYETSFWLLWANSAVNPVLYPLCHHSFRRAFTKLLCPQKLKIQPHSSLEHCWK
Gamma-aminobutyric acid receptor subunit alpha-1, sequence (P62813 whole entry): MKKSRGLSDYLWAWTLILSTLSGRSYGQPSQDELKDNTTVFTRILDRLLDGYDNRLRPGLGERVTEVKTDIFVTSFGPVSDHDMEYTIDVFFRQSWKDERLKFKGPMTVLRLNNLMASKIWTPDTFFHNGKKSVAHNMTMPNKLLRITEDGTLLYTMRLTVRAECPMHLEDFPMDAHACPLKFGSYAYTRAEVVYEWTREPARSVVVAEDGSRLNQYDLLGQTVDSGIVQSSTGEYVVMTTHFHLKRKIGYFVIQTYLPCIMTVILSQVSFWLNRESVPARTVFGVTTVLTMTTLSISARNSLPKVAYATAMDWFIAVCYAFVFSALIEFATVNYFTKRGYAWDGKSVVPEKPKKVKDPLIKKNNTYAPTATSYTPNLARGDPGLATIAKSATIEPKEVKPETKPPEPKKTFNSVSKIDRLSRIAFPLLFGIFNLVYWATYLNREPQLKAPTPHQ
D(1A) dopamine receptor, sequence (P21728 whole entry): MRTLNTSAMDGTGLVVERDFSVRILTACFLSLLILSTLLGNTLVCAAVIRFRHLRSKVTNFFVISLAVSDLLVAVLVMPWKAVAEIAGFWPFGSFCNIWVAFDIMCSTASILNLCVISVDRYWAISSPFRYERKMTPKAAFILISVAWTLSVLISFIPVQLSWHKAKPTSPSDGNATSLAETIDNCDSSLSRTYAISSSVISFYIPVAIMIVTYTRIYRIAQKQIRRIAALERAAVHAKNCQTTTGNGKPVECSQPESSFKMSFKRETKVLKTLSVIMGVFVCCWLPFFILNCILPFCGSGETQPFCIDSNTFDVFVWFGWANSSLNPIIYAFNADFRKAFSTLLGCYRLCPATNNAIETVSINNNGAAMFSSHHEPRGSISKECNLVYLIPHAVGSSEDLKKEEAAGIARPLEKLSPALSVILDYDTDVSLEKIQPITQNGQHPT
D(3) dopamine receptor, sequence (P35462 whole entry): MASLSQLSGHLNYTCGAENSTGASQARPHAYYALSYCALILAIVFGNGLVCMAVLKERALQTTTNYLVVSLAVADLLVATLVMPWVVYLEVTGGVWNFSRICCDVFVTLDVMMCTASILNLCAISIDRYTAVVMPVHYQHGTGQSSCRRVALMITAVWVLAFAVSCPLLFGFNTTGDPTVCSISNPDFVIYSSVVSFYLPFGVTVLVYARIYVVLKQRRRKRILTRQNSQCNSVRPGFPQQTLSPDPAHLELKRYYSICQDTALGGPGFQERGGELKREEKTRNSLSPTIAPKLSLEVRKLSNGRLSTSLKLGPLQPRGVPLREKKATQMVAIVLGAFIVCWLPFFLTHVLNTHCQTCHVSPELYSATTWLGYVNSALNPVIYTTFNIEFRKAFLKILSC
Vasopressin V1a receptor, sequence (P37288 whole entry): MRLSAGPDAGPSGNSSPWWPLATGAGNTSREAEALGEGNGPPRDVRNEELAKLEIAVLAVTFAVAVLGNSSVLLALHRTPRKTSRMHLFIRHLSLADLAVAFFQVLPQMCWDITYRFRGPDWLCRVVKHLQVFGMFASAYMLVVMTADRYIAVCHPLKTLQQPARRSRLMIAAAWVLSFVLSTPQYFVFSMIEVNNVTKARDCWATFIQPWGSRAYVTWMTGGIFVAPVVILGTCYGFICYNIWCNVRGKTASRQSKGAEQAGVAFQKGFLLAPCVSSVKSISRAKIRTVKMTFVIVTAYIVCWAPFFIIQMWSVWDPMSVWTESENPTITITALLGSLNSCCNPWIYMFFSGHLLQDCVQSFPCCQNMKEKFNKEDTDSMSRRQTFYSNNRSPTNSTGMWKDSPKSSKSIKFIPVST
Voltage-gated inwardly rectifying potassium channel KCNH2, sequence (Q12809 whole entry): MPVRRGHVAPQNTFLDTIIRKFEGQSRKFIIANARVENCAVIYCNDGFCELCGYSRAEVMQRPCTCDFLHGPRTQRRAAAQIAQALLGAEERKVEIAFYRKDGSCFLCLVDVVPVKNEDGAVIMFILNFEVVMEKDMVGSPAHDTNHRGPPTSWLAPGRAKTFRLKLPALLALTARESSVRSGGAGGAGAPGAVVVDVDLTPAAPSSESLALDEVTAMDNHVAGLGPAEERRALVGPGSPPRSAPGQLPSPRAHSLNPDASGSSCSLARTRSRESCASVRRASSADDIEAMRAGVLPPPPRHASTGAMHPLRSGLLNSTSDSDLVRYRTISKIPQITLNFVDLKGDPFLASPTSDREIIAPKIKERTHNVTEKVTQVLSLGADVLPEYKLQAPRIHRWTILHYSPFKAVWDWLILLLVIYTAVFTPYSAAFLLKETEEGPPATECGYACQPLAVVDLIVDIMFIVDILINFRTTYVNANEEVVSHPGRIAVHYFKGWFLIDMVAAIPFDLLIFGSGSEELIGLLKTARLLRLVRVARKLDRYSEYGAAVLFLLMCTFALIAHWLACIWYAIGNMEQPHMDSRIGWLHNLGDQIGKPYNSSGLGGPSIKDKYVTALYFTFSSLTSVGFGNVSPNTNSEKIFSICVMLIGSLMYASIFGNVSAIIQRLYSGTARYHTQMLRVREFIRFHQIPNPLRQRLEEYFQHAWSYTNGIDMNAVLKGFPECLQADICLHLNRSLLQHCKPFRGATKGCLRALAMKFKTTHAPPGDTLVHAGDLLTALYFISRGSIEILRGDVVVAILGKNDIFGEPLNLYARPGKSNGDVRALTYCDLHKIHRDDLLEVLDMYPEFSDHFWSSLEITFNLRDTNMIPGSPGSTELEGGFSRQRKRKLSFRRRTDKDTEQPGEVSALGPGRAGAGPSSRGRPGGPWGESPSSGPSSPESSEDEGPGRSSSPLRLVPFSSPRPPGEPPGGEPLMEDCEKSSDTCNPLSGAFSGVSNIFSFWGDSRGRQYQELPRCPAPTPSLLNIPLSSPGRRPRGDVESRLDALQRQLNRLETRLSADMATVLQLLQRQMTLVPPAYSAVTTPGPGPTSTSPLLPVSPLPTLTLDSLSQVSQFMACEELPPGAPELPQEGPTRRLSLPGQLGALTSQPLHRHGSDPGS

SMILES	AC50 [1] [µM]	AC50 (Vasopressin V1a receptor) [µM]	AC50 (Endothelin-1 receptor) [µM]	AC50 [2] [µM]	AC50 [3] [µM]	AC50 [4] [µM]	AC50 [5] [µM]	AC50 (Histamine H3 receptor) [µM]	AC50 (D(1A) dopamine receptor) [µM]	AC50 [6] [µM]	AC50 (D(3) dopamine receptor) [µM]
NCCCC(O)(P(=O)(O)O)P(=O)(O)O [ALENDRONIC ACID]	> 10	> 10	> 30	> 10	> 10	> 10	> 30	> 10			
CC(=O)OCC(=O)[C@@]1(O)CC[C@H]2[C@@H]3CCC4=CC(=O)CC[C@]4(C)C3=CC[C@@]21C [ANECORTAVE ACETATE]	> 10	> 10		> 10		> 30	> 10	> 10	> 10	> 30	> 30
NS(=O)(=O)c1cc2c(cc1C(F)(F)F)NC(Cc1ccccc1)NS2(=O)=O (configuration not stated) [BENDROFLUMETHIAZIDE]	> 10	> 10		> 10	> 10	> 30	> 30	> 10	> 10	> 30	> 30
CCCC(C)(COC(N)=O)COC(=O)NC(C)C (configuration not stated) [CARISOPRODOL]	> 10	> 10	> 30	> 10	> 10	> 30	> 30	> 10	> 10	> 30	> 10
N[C@H](Cc1cc(I)c(Oc2cc(I)c(O)c(I)c2)c(I)c1)C(=O)O [DEXTROTHYROXINE]	> 10	> 30	> 30	> 10	8.2	> 30	> 30	> 10	> 10	> 30	> 10
C[C@@H]1C[C@H]2[C@@H]3C[C@H](F)C4=CC(=O)C=C[C@]4(C)[C@@]3(F)[C@@H](O)C[C@]2(C)[C@H]1C(=O)CO [DIFLUCORTOLONE]											> 30
Clc1ccc2c(c1)C(c1ccccc1)=NCc1nncn1-2 [ESTAZOLAM]	> 10	> 30		0.0336	> 10	> 30	> 30	> 10	> 10	> 30	> 30
Nc1ccn([C@@H]2O[C@H](CO)[C@@H](O)C2(F)F)c(=O)n1 [GEMCITABINE]	> 10	> 30		> 10	> 10	> 30		> 10	> 10	> 30	> 30
CC1(C)C(/C=C/C=C/C=C/C=C2\N(CCCCS(=O)(=O)O)c3ccc4ccccc4c3C2(C)C)=[N+](CCCCS(=O)(=O)[O-])c2ccc3ccccc3c21 [INDOCYANINE GREEN ACID FORM]	> 30	7.7	> 30	18	> 30	13	11			6.5	8.7
CC#CCn1c(N2CCC[C@@H](N)C2)nc2c1c(=O)n(Cc1nc(C)c3ccccc3n1)c(=O)n2C [LINAGLIPTIN]	> 10	> 30		> 10		> 30	> 30	> 10			> 30
CC(=O)Nc1c(I)c(C(=O)N[C@H]2C(O)O[C@H](CO)[C@@H](O)[C@@H]2O)c(I)c(N(C)C(C)=O)c1I (some centres not stated) [METRIZAMIDE]	> 10	> 10		> 10	> 10	> 30	> 10		> 10	> 30	> 30
CCOC(=O)Nc1ccc2c(c1)N(C(=O)CCN1CCOCC1)c1ccccc1S2 [MORICIZINE]	> 30	> 30	> 30	> 30		> 30	> 30	> 30	> 30	19	> 30
O=C1CN=C(c2ccccc2)c2cc(Cl)ccc2N1 [NORDAZEPAM]	> 10	> 10	> 30	0.049	> 10	> 10	> 30	> 10	> 10		> 10
O=C1Nc2ccc(Cl)cc2C(c2ccccc2)=NC1O (configuration not stated) [OXAZEPAM]	> 10	> 10	> 30	0.03	> 10	> 10	> 30	> 10	> 10		> 10
CC1(C)C(C=C(Cl)Cl)C1C(=O)OCc1cccc(Oc2ccccc2)c1 (configuration not stated) [PERMETHRIN]	9.7	> 10		> 10	> 10	> 30	> 10	> 10	> 10	> 30	> 30
NC(=O)CCC/N=C(\c1ccc(Cl)cc1)c1cc(F)ccc1O [PROGABIDE]	> 10	> 10		> 10	> 10	> 30	> 10	> 10	> 10	> 30	> 30
COc1cc2nccc(Oc3ccc(NC(=O)Nc4cc(C)on4)c(Cl)c3)c2cc1OC [TIVOZANIB]							> 3			> 1	
COc1ccc(C(CN(C)C)C2(O)CCCCC2)cc1 (configuration not stated) [VENLAFAXINE]	> 10			> 10		> 30	> 30	6.8	> 30	> 30	
C=CC(N)CCC(=O)O (configuration not stated) [VIGABATRIN]	> 10	> 10		> 10		> 30	> 30	> 10	> 10	> 30	> 30
